Read-outs that look alike come from different tables or passages of the source.

Series [1] relates to streptozotocin-induced diabetic neuropathy model of neuropathic pain. To be noted: rat, in vivo; for maximum non-sedating dose / reduction in hyperalgesia: iv.
The conditions of series [2]: rat, in vivo; for maximum non-sedating dose: iv.
The test system of series [3] is carrageenan paw inflammation model. The conditions noted are these: rat, in vivo.
Series [4] has as its system rat model of diabetic neuropathic pain. The arrangement: species or system rats. To be noted: in vivo.
The conditions of series [5]: in vivo; cited from earlier work.
Series [6] relates to rat model of prostate bone cancer pain. As to the kind of experiment: animal or person. The series is classed as in vivo, Male Wistar rats. To be noted: rat, in vivo.
The conditions of series [7]: dog, in vivo, iv.

On to `CSCC[C@@H]1NC(=O)[C@H](CC(C)C)NC(=O)[C@H](CCCNC(=N)N)NC(=O)[C@H](CO)NC(=O)[C@@H]2CSSC[C@@H]3NC(=O)[C@H](CO)NC(=O)CNC(=O)[C@H]([C@@H](C)O)NC(=O)[C@H](CSSC[C@H](N)C(=O)N[C@@H](CCCCN)C(=O)NCC(=O)N[C@@H](CCCCN)C(=O)NCC(=O)N[C@@H](C)C(=O)N[C@@H](CCCCN)C(=O)N2)NC(=O)[C@H](CSSC[C@@H](C(N)=O)NC(=O)[C@H](CCCCN)NC(=O)CNC(=O)[C@H](CO)NC(=O)[C@H](CCCNC(=N)N)NC3=O)NC(=O)[C@H](CC(=O)O)NC(=O)[C@H](Cc2ccc(O)cc2)NC1=O` [MVIIA, ziconotide], for which the maximum non-sedating dose in series [1] and in series [2] was 0.02 mg/kg in each case.

Consider leconotide [CVID], for which the “analgesic response compared to saline administration” value in series [3] is “effective at inducing an analgesic response”. In series [3] (ip), the “duration of antinociceptive responses following injection of the bolus” value was in the range of 4 to 6 h. Besides, the antinociceptive effect result in series [4] is on record as “dose related antinociceptive effects”. For the same compound, in series [1], the “efficacy compared with gabapentin or morphine alone or in combination” value is on record as “improved efficacy” and the maximum non-sedating dose is reported as 2.0 mg/kg. Further, the reduction in hyperalgesia result in series [1] (0.02 mg/kg) is listed as “approximately 30%”. Also, in series [1] (2 mg/kg), the reduction in hyperalgesia result is on record as “greater than 50%”. In series [2], this compound registered a mean rest times of 982.89 s and a maximum non-sedating dose of 2 mg/kg. Further, in series [5], the “toxicity on intravenous administration” value is listed as “less toxic than ziconotide”. Besides, the “reversal of the hyperalgesia caused by intratibial prostate bone cancer (FIG. 7)” value in series [6] is recorded as “small, statistically non-significant reversal”. Moreover, in series [6] (iv), the antinociceptive effects entry is on record as “no significant antinociceptive effects”. Besides, in series [7], the “adverse effects on cardiovascular function” value is reported as “no adverse effects on cardiovascular function” and the “toxicological or pathological effect” value is “no toxicological or pathological effect was observed”.

Values taken from US20110129508A1 (priority 2008, published 2011).
